Assay results published in PMC6534212, “Synthesis and biological evaluation of 3–(4-aminophenyl)-coumarin derivatives as potential anti-Alzheimer’s disease agents” (Journal of Enzyme Inhibition and Medicinal Chemistry, 2019).
“Also recorded” adds a separate entry of the source.

Assays:
[1] = biological target: T1, AChE from Electrophorus electricus (Electrophorus electricus, UniProt O42275); assay: biochemical; assay type: biochemical; conditions: for IC50: AChE from Electrophorus electricus, mean ± SD (n=3); for Selectivity AChE/BuChE (in words): verbal summary of SI; for AChE inhibitory activity (in words): verbal summary of Table 2
T1 construct: purchased Macklin
Procedure: (§1) In the experiment, 0.05 mol/L phosphate buffered saline (PBS) of pH 8.0 was prepared first, and then the following solutions were prepared: 1.5 mmol/L Acetylthiocholine iodide (ATChI); 0.75 mmol/L 5, 5'-Dithiobis-(2-nitrobenzoic acid) (DTNB, Sigma Aldrich, St. Louis, MO); 0.2 U/mL Acetylcholinesterase (AChE, from […], Macklin); 0.5 U/mL Butyrylcholinesterase (BuChE, from equine serum, Aladdin, Shanghai, China); 1.5 mmol/L S-Butyrylthiocholine iodide (BTChI, Sigma Aldrich, St. Louis, MO). 4% sodium dodecyl sulphate (SDS) was prepared with secondary water. […] All solutions were stored in a refrigerator at 4 °C.
(§2) The AChE/BuChE inhibitory activity of the 3–(4-aminophenyl)-coumarin derivatives was determined by the method of Ellaman[28] with slight modifications. The experiment was divided into control group, sample blank group and sample group. Take a series of test tubes, the reagents were loaded in test tubes at the dose of Table 6. After incubation at 37 °C for 20 min, quickly add 1 mL of 4% SDS to stop the reaction. […] All experiments were run in triplicate. The absorbance was determined by UV spectrophotometer, and the inhibition rate of AChE and the IC50 value of each sample were calculated according to the formula. Inhibition rate % = {[(AC−AS)−ASB]/AC} ×100%, where AC (no sample added) is the absorbance of control group; AS is the absorbance of sample group; ASB (add sample solution but no substrate ATChI added) is the absorbance of sample blank group.

BuChE from equine serum = biological target: T2, BuChE from equine serum (Equus caballus, UniProt P81908); assay: biochemical; assay type: biochemical; conditions: for IC50: BuChE from equine serum, mean ± SD (n=3); for BuChE inhibitory activity (in words): verbal summary of Table 2, comparison with donepezil
T2 construct: Butyrylcholinesterase (BuChE, from equine serum, Aladdin, Shanghai, China); purchased Aladdin, Shanghai, China; host or cells: equine serum
Procedure: as §1, §2
The method for determining BuChE is the same as the method for measuring AChE. The sample can be added with reference to Table 6, AChE is changed to BuChE, and the substrate ATChI is changed to substrate BTChI. The order of loading and the amount of loading are the same as Table 6. The absorbance was determined by UV spectrophotometer, and the inhibition rate of BuChE and the IC50 value of each sample were calculated according to the formula. The formula used is the same as AChE.

[2] = tested on: aluminium trichloride-induced zebrafish juveniles; assay: Effects of compounds on aluminium trichloride-induced behavioural inhibition of zebrafish juveniles (Zebrobox); conditions: for Total movement distance: mean ± SE, n=8
Procedure: The most suitable modelling concentrations were chosen, and then the effect of the compounds on the behaviour of the aluminium trichloride-induced zebrafish juveniles was explored.
The 72 hpf zebrafish were placed in a petri dish, and the normal developing juveniles were selected under a microscope in a 12-well plate. […] The continuous drug solution was exposed for 3 days. […] Each well was juvenile fish developed to 72 h post-exposure (hpe) and added 0.5 mL of culture water and 8 juveniles were set in each experimental group. The well plate was placed in the dark box of the zebrafish behaviour analysis system. The fish was first adapted to 10 min at the beginning of the experiment. The trajectories of the juveniles in each group were collected using zeblab software for 10 min, recorded every 5 min, and exported by software. Then calculate the total distance of each group of zebrafish juveniles.
The zebrafish with 72 hpf after fertilisation is placed in a petri dish. Under normal conditions, the normal developing juvenile fish are selected in a 12-well plate, and 15 juveniles per hole are set. Control group (0.5% DMSO), model group (5.0 mg/L AlCl3), 5.0 mg/L AlCl3 + test compound 5 μg/mL group, 5.0 mg/L AlCl3 + test compound 10 μg/mL group, 5.0 mg/L AlCl3 + test compound 50 μg/mL group, 5.0 mg/L AlCl3 + test compound 100 μg/mL group, three duplicate wells were set at each concentration. After the administration, the zebrafish was placed in a constant temperature incubator at 28 °C to continue the culture for 3 days. Changing the liquid (aquaculture water) every 24 h and removing dead young fish.

[3] = 5 mg/L compound + 5.0 mg/L AlCl3, 3 days
[4] = 10 mg/L compound + 5.0 mg/L AlCl3, 3 days
[5] = 50 mg/L compound + 5.0 mg/L AlCl3, 3 days
[6] = 100 mg/L compound + 5.0 mg/L AlCl3, 3 days

T1 sequence (O42275 24-633): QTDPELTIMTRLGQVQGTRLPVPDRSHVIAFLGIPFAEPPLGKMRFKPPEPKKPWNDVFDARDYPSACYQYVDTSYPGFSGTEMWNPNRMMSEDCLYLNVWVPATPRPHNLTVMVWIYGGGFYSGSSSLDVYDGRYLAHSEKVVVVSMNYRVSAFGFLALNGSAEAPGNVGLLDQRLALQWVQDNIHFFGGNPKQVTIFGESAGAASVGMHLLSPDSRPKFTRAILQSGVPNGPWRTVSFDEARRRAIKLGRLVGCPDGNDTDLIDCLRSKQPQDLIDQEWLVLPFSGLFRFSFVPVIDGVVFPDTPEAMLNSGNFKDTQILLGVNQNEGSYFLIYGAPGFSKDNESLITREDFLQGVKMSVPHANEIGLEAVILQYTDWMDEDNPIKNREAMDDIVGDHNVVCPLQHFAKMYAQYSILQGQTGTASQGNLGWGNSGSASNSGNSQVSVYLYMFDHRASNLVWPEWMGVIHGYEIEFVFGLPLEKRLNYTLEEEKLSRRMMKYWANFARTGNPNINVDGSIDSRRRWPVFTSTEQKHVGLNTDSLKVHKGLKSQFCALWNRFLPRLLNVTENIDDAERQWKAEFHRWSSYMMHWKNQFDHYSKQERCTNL
T2 sequence (P81908 whole entry): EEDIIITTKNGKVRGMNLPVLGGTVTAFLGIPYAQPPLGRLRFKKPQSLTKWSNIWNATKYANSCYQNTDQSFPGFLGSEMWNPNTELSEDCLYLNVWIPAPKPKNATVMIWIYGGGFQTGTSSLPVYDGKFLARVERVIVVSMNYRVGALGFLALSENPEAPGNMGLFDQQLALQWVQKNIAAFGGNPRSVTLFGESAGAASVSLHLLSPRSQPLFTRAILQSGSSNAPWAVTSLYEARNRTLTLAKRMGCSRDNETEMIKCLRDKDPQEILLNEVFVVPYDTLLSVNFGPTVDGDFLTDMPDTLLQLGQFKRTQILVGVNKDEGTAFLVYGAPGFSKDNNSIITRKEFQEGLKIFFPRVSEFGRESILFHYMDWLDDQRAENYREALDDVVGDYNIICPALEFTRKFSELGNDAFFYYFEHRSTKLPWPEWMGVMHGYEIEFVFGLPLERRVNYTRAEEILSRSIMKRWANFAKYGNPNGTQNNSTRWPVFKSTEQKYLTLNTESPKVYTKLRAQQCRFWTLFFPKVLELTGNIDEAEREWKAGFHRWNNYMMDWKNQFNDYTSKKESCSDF

COc1ccccc1C(=O)Nc1ccc(-c2cc3cccc(OC)c3oc2=O)cc1 [Compound 4q, 3-[4-(2-methoxy-benzoylamino)-phenyl]-8-methoxy-coumarin]
IC50 [1]: 48.2 ± 3.13 µM | SI: selectivity index (IC50 BuChE/IC50 AChE) [1]: >1.037 | IC50 (BuChE from equine serum): > 50 µM

COc1cccc2cc(-c3ccc(NC(=O)c4ccco4)cc3)c(=O)oc12 [Compound 5b, 3-[4-(furan-2-formylamino)-phenyl]-8-methoxy-coumarin]
IC50 [1]: 47.1 ± 1.59 µM | SI: selectivity index (IC50 BuChE/IC50 AChE) [1]: 0.098 | IC50 (BuChE from equine serum): 4.62 ± 0.055 µM

O=C(Nc1ccc(-c2cc3ccc(O)c(O)c3oc2=O)cc1)c1ccc(CCl)cc1 [Compound 4s, 3-[4-(4-Chloromethyl-benzoylamino)-phenyl]-7,8-dihydroxy-coumarin]
IC50 [1]: 48.2 ± 2.69 µM | SI: selectivity index (IC50 BuChE/IC50 AChE) [1]: >1.037 | IC50 (BuChE from equine serum): > 50 µM

O=C(Nc1ccc(-c2cc3ccc(O)cc3oc2=O)cc1)c1ccc(Cl)cc1 [Compound 4h, 3-[4-(4-chloro-benzoylamino)-phenyl]-7-hydroxy-coumarin]
IC50 [1]: > 50 µM | SI: selectivity index (IC50 BuChE/IC50 AChE) [1]: <0.078 | Selectivity AChE/BuChE (in words) [1]: highly selective for BuChE | AChE inhibitory activity (in words) [1]: no inhibitory activity | IC50 (BuChE from equine serum): 3.88 ± 0.191 µM

O=C(Nc1ccc(-c2cc3ccc(O)cc3oc2=O)cc1)c1ccc2ccccc2c1 [Compound 7a, 3-[4-(2-naphthoylamino)-phenyl]-7-hydroxy-coumarin]
IC50 [1]: > 50 µM | IC50 (BuChE from equine serum): 2.07 ± 0.045 µM | BuChE inhibitory activity (in words) (BuChE from equine serum): better than donepezil

O=C(Nc1ccc(-c2cc3ccc(O)cc3oc2=O)cc1)c1cccc(Cl)c1 [Compound 4f, 3-[4-(3-chloro-benzoylamino)-phenyl]-7-hydroxy-coumarin]
Total movement distance [2, 3]: 205.7 ± 4.5 cm | Total movement distance [2, 4]: 223.2 ± 16.4 cm | Total movement distance [2, 5]: 236 ± 11.5 cm | Total movement distance [2, 6]: 244.8 ± 13.6 cm | Effect on behavioural inhibition of zebrafish induced by aluminium trichloride (in words) ([2]; compared with the model group): certain therapeutic effects; also recorded: could alleviate the behavioural inhibition symptoms | IC50 [1]: 1.94 ± 0.141 µM | SI: selectivity index (IC50 BuChE/IC50 AChE) [1]: 1.319 | AChE inhibitory activity (in words) [1]: moderate to excellent AChE inhibitory activity | IC50 (BuChE from equine serum): 2.56 ± 0.275 µM | BuChE inhibitory activity (in words) (BuChE from equine serum): better than donepezil

Cc1cccc(C(=O)Nc2ccc(-c3cc4ccc(O)cc4oc3=O)cc2)c1 [Compound 4e, 3-[4-(3-methyl-benzoylamino)-phenyl]-7-hydroxy-coumarin]
IC50 [1]: > 50 µM | SI: selectivity index (IC50 BuChE/IC50 AChE) [1]: <0.211 | AChE inhibitory activity (in words) [1]: no inhibitory activity | IC50 (BuChE from equine serum): 10.6 ± 0.132 µM

COc1cccc2cc(-c3ccc(NC(=O)c4ccc(F)cc4)cc3)c(=O)oc12 [Compound 4k, 3-[4-(4-fluoro-benzoylamino)-phenyl]-8-methoxy-coumarin]
Total movement distance [2, 3]: 194.9 ± 5.5 cm | Total movement distance [2, 4]: 186.7 ± 7.7 cm | Total movement distance [2, 5]: 181.8 ± 6.9 cm | Total movement distance [2, 6]: 205.7 ± 9.5 cm | IC50 [1]: 28 ± 2.56 µM | SI: selectivity index (IC50 BuChE/IC50 AChE) [1]: 0.020 | Selectivity AChE/BuChE (in words) [1]: highly selective for BuChE | IC50 (BuChE from equine serum): 0.559 ± 0.017 µM | BuChE inhibitory activity relative to donepezil (BuChE from equine serum; more active than donepezil): 5 times | BuChE inhibitory activity (in words) (BuChE from equine serum): better than donepezil

O=C(Nc1ccc(-c2cc3ccc(O)cc3oc2=O)cc1)c1ccc(F)cc1 [Compound 4b, 3-[4-(4-fluoro-benzoylamino)-phenyl]-7-hydroxy-coumarin]
IC50 [1]: > 50 µM | SI: selectivity index (IC50 BuChE/IC50 AChE) [1]: <0.050 | Selectivity AChE/BuChE (in words) [1]: highly selective for BuChE | AChE inhibitory activity (in words) [1]: no inhibitory activity | IC50 (BuChE from equine serum): 2.44 ± 0.035 µM | BuChE inhibitory activity (in words) (BuChE from equine serum): better than donepezil

O=C(Nc1ccc(-c2cc3ccc(O)cc3oc2=O)cc1)c1cccc(F)c1 [Compound 4a, 3-[4-(3-fluoro-benzoylamino)-phenyl]-7-hydroxy-coumarin]
IC50 [1]: > 50 µM | Selectivity AChE/BuChE (in words) [1]: highly selective for BuChE | AChE inhibitory activity (in words) [1]: no inhibitory activity | IC50 (BuChE from equine serum): 3.89 ± 0.955 µM

O=C(Nc1ccc(-c2cc3ccc(O)cc3oc2=O)cc1)c1ccccc1F [Compound 4g, 3-[4-(2-fluoro-benzoylamino)-phenyl]-7-hydroxy-coumarin]
IC50 [1]: > 50 µM | SI: selectivity index (IC50 BuChE/IC50 AChE) [1]: <0.489 | AChE inhibitory activity (in words) [1]: no inhibitory activity | IC50 (BuChE from equine serum): 24.5 ± 0.535 µM

COc1cccc2cc(-c3ccc(NC(=O)c4ccc(Cl)nc4)cc3)c(=O)oc12 [Compound 7c, 3-[4-(6-chloro-N-nicotinamide)-phenyl]-8-methoxy-coumarin]
IC50 [1]: 19.2 ± 1.64 µM | SI: selectivity index (IC50 BuChE/IC50 AChE) [1]: 0.176 | IC50 (BuChE from equine serum): 3.38 ± 0.342 µM

COc1cccc2cc(-c3ccc(NC(=O)c4ccc5ccccc5c4)cc3)c(=O)oc12 [Compound 7b, 3-[4-(2-naphthoylamino)-phenyl]-8-methoxy-coumarin]
Total movement distance [2, 4]: 278.4 ± 11.4 cm | Total movement distance [2, 5]: 227.4 ± 8.1 cm | Total movement distance [2, 6]: 272.1 ± 10.4 cm | IC50 [1]: 0.128 ± 0.011 µM | SI: selectivity index (IC50 BuChE/IC50 AChE) [1]: 341.87 | Selectivity AChE/BuChE (in words) [1]: highly selective for AChE | AChE inhibitory activity (in words) [1]: moderate to excellent AChE inhibitory activity | IC50 (BuChE from equine serum): 43.8 ± 1.97 µM

COc1cccc2cc(-c3ccc(NC(=O)c4cccc(C)c4)cc3)c(=O)oc12 [Compound 4o, 3-[4-(3-methyl-benzoylamino)-phenyl]-8-methoxy-coumarin]
IC50 [1]: 8.26 ± 0.581 µM | SI: selectivity index (IC50 BuChE/IC50 AChE) [1]: >6.054 | Selectivity AChE/BuChE (in words) [1]: highly selective for AChE | AChE inhibitory activity (in words) [1]: moderate to excellent AChE inhibitory activity | IC50 (BuChE from equine serum): > 50 µM

COc1cccc2cc(-c3ccc(NC(=O)c4ccccc4F)cc3)c(=O)oc12 [Compound 4p, 3-[4-(2-fluoro-benzoylamino)-phenyl]-8-methoxy-coumarin]
IC50 [1]: 48.9 ± 2.32 µM | SI: selectivity index (IC50 BuChE/IC50 AChE) [1]: 0.326 | IC50 (BuChE from equine serum): 16 ± 0.475 µM

COc1cccc2cc(-c3ccc(NC(=O)c4cccc5ccccc45)cc3)c(=O)oc12 [Compound 6b, 3-[4-(1-naphthoylamino)-phenyl]-8-methoxy-coumarin]
IC50 [1]: > 50 µM | IC50 (BuChE from equine serum): > 50 µM

COc1cccc2cc(-c3ccc(NC(=O)c4cccc(Cl)c4)cc3)c(=O)oc12 [Compound 4n, 3-[4-(3-chloro-benzoylamino)-phenyl]-8-methoxy-coumarin]
IC50 [1]: > 50 µM | SI: selectivity index (IC50 BuChE/IC50 AChE) [1]: <0.020 | IC50 (BuChE from equine serum): 0.951 ± 0.159 µM | BuChE inhibitory activity (in words) (BuChE from equine serum): better than donepezil

Cc1ccc(C(=O)Nc2ccc(-c3cc4ccc(O)cc4oc3=O)cc2)cc1 [Compound 4c, 3-[4-(4-methyl-benzoylamino)-phenyl]-7-hydroxy-coumarin]
IC50 [1]: > 50 µM | AChE inhibitory activity (in words) [1]: no inhibitory activity | IC50 (BuChE from equine serum): 15.6 ± 1.82 µM

O=C(Nc1ccc(-c2cc3ccc(O)cc3oc2=O)cc1)c1ccc(CCl)cc1 [Compound 4d, 3-[4-(4-chloromethyl-benzoylamino)-phenyl]-7-hydroxy-coumarin]
IC50 [1]: 47.2 ± 3.57 µM | SI: selectivity index (IC50 BuChE/IC50 AChE) [1]: 0.189 | IC50 (BuChE from equine serum): 8.9 ± 1.18 µM

Cc1cc(C)cc(C(=O)Nc2ccc(-c3cc4ccc(O)cc4oc3=O)cc2)c1 [Compound 4i, 3-[4-(3,5-dimethyl-benzoylamino)-phenyl]-7-hydroxy-coumarin]
IC50 [1]: > 50 µM | SI: selectivity index (IC50 BuChE/IC50 AChE) [1]: <0.045 | Selectivity AChE/BuChE (in words) [1]: highly selective for BuChE | AChE inhibitory activity (in words) [1]: no inhibitory activity | IC50 (BuChE from equine serum): 2.26 ± 0.225 µM | BuChE inhibitory activity (in words) (BuChE from equine serum): better than donepezil

O=C(Nc1ccc(-c2cc3ccc(O)cc3oc2=O)cc1)c1cccc2ccccc12 [Compound 6a, 3-[4-(1-naphthoylamino)-phenyl]-7-hydroxy-coumarin]
IC50 [1]: 19.1 ± 0.981 µM | SI: selectivity index (IC50 BuChE/IC50 AChE) [1]: >2.612 | IC50 (BuChE from equine serum): > 50 µM
